According to patent publication US10308652B2, “Tricyclic heterocyclic compounds useful as inhibitors of TNF” (BRISTOL-MYERS SQUIBB COMPANY, priority 2015, dated 2019):

The compounds below were run against TNFα (Homo sapiens (Human), UniProt P01375) (assay: TNF induced HEK-Blue assay). Details: TNFα 0.5 ng/ml; HEK-Blue-CD40L cells, NF-κB-driven secreted alkaline phosphatase reporter; 18 h.
Sequence of TNFα (P01375 77-233): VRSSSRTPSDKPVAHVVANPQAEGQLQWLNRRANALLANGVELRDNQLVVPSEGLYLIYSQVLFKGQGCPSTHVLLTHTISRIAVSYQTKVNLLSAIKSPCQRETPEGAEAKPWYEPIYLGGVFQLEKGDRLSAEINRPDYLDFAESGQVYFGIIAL
Assay type: cell-based
Procedure: TNF or CD40L-induced HEK-Blue Assay Test compounds serially diluted in DMSO were plated in an assay plate (Labcyte, Cat. #LP-0200) at final concentrations ranging from 0.004 μM to 25μM. TNFα (final concentration 0.5 ng/ml) or CD4OL (final concentration 30 ng/ml) in assay buffer [DMEM, 4.5 g/l glucose (Gibco, Cat. 21063-029), 10% FBS (Sigma, F4135), 1% Penicillin-Streptomycin (Gibco, Cat. 15140-122), 1% Anti-Anti (Gibco, Cat. 15240-112) and 2 mM L-glutamine (Gibco, Cat. 25030-081)] was then added to the assay plate. After a 30 minute pre-incubation at 37° C. and 5% CO2, HEK-Blue-CD40L cells (InvivoGen, Cat. Code hkb-cd40) containing a NF-κB-driven secreted alkaline phosphatase reporter gene were seeded into the assay plate at a density of 20,000 cells per well. This plate was then incubated for 18 h at 37° C. and 5% CO2. Secreted alkaline phosphatase expression was measured using QUANTI-Blue (InvivoGen, Cat. Code rep-qb1) according to manufacturer's specifications and the assay plate was read on a PerkinElmer Envision at 620 nm. Inhibition data for the test compound over a range of concentrations was plotted as percentage inhibition of the test compound (100%=maximum inhibition). IC50 values were determined after correcting for background [(sample read−mean of low control)/(mean of high control−mean of low control)] where by the low control is DMSO without stimulation and high control is DMSO with stimulation. The IC50 is defined as the concentration of test compound which produces 50% inhibition and was quantified using the 4 parameter logistic equation to fit the data.
Work on `O=C(NC1CC1)c1ccc(-c2ccc3nc4c(n3n2)C(c2ccccc2OC(F)F)NCC4O)cn1` (stereo not drawn) [Example 21, N-cyclopropyl-5-(9-(2-(difluoromethoxy)phenyl)-6-hydroxy-6,7,8,9-tetrahydropyrido[4′,3′:4,5]imidazo[1,2-b]pyridazin-2-yl)picolinamide] yielded an IC50 of 1000 to 10000 nM. With `CC(C)(O)c1ccc(-c2ccc3nc4c(n3n2)[C@H](c2ccccc2OC(F)F)NC[C@@H]4O)cc1` (racemic) [Example 4, (+/−)-cis-9-(2-(difluoromethoxy)phenyl)-2-(4-(2-hydroxypropan-2-yl)phenyl)-6,7,8,9-tetrahydropyrido[4′,3′:4,5]imidazo[1,2-b]pyridazin-6-ol] the IC50 was under 1000 nM. With `CC(C)(O)c1ccc(-c2ccc3nc4c(n3n2)[C@H](c2ccccc2OC(F)F)NC[C@@H]4F)cc1` (racemic) [Example 8, (+/−)-Cis-2-(4-((6S,9S)-9-(2-(difluoromethoxy)phenyl)-6-fluoro-6,7,8,9-tetrahydropyrido [4′,3′:4,5]imidazo[1,2-b]pyridazin-2-yl)phenyl)propan-2-ol] the IC50 was under 1000 nM. `CCCOc1ccc(-c2ccc3nc4c(n3n2)[C@@H](c2ccccc2OC(F)F)NC[C@H]4O)cc1` (racemic) [Example 33, (+/−)-cis-9-(2-(difluoromethoxy)phenyl)-2-(4-propoxyphenyl)-6,7,8,9-tetrahydropyrido [4′,3′:4,5]imidazo[1,2-b]pyridazin-6-ol] gave an IC50 of under 1000 nM. `O=C(NC1CC1)c1ccc(-c2ccc3nc4c(n3n2)C(c2ccccc2OC(F)F)NCC4O)cc1` (stereo not drawn) [Example 20, N-cyclopropyl-4-(9-(2-(difluoromethoxy)phenyl)-6-hydroxy-6,7,8,9-tetrahydropyrido[4′,3′:4,5]imidazo[1,2-b]pyridazin-2-yl)benzamide] showed an IC50 of 10000 to 25000 nM. `CNS(=O)(=O)c1ccc(-c2ccc3nc4c(n3n2)[C@@H](c2ccccc2OC(F)F)NC[C@H]4O)cc1` (racemic) [Example 40, (+/−)-cis-4-(9-(2-(difluoromethoxy)phenyl)-6-hydroxy-6,7,8,9-tetrahydropyrido[4′,3′:4,5]imidazo[1,2-b]pyridazin-2-yl)-N-methylbenzenesulfonamide] showed an IC50 of 1000 to 10000 nM. With `CCc1ccccc1[C@@H]1NC[C@@H](O)c2nc3ccc(-c4ccc(C(C)(C)O)cc4)nn3c21` (racemic) [Example 24, (+/−)-trans-9-(2-ethylphenyl)-2-(4-(2-hydroxypropan-2-yl)phenyl)-6,7,8,9-tetrahydropyrido[4′,3′:4,5]imidazo[1,2-b]pyridazin-6-ol] the IC50 was under 1000 nM. Compound `CC(C)(O)c1ccc(-c2ccc3nc4c(n3n2)C(c2ccccc2OC(F)F)NCC4)cc1` (racemic) [Example 2, (+/−)-2-(4-(9-(2-(Difluoromethoxy)phenyl)-6,7,8,9-tetrahydropyrido [4′,3′:4,5]imidazo[1,2-b]pyridazin-2-yl)phenyl)propan-2-ol] has an IC50 of under 1000 nM. `NS(=O)(=O)c1ccc(-c2ccc3nc4c(n3n2)[C@@H](c2ccccc2OC(F)F)NC[C@H]4O)cc1` (racemic) [Example 46, (+/−)-cis-4-(9-(2-(difluoromethoxy)phenyl)-6-hydroxy-6,7,8,9-tetrahydropyrido[4′,3′:4,5]imidazo[1,2-b]pyridazin-2-yl)benzenesulfonamide] showed an IC50 of 1000 to 10000 nM. `CC(C)(O)c1ncc(-c2ccc3nc4c(n3n2)C(c2ccccc2OC(F)F)NCC4)cn1` (racemic) [Example 3, (+/−)-2-(5-(9-(2-(Difluoromethoxy)phenyl)-6,7,8,9-tetrahydropyrido[4′,3′:4,5]imidazo[1,2-b]pyridazin-2-yl)pyrimidin-2-yl)propan-2-ol] showed an IC50 of 1000 to 10000 nM. With “(+/−)-trans-9-(2-(difluoromethoxy)phenyl)-2-(4-(2-hydroxy-2-methylpropoxy)phenyl)-6,7,8,9-tetrahydropyrido[4′,3′:4,5]imidazo[1,2-b]pyridazin-6-ol [Example 52]” the IC50 was 1000 to 10000 nM. With “(+/−)-cis-9-(2-(difluoromethoxy)phenyl)-2-(4-(2-hydroxybutan-2-yl)phenyl)-6,7,8,9-tetrahydropyrido[4′,3′:4,5]imidazo[1,2-b]pyridazin-6-ol [Example 50]” the IC50 was 1000 to 10000 nM. `CC(C)COc1ccc(-c2ccc3nc4c(n3n2)[C@@H](c2ccccc2OC(F)F)NC[C@H]4O)cc1` (racemic) [Example 27, (+/−)-cis-9-(2-(difluoromethoxy)phenyl)-2-(4-isobutoxyphenyl)-6,7,8,9-tetrahydropyrido[4′,3′:4,5]imidazo[1,2-b]pyridazin-6-ol] gave an IC50 of 1000 to 10000 nM. For `CC(C)(O)c1ncc(-c2ccc3nc4c(n3n2)[C@@H](c2ccccc2OC(F)F)NC[C@H]4F)cn1` (racemic) [Example 10, (+/−)-cis-2-(5-(9-(2-(difluoromethoxy)phenyl)-6-fluoro-6,7,8,9-tetrahydropyrido [4′,3′:4,5]imidazo[1,2-b]pyridazin-2-yl)pyrimidin-2-yl)propan-2-ol], the IC50 was 1000 to 10000 nM. `CC(C)(O)c1ccc(-c2ccc3nc4c(n3n2)C(c2ccccc2OC(F)F)OCC4(O)c2ccncc2)cc1` (stereo not drawn) [Example 60, 9-(2-(Difluoromethoxy)phenyl)-2-(4-(2-hydroxypropan-2-yl)phenyl)-6-(pyridin-4-yl)-6,9-dihydro-7H-pyrano[4′,3′:4,5]imidazo[1,2-b]pyridazin-6-ol] showed an IC50 of 1000 to 10000 nM. With `O=C(O)CN1CCN(c2ncc(-c3ccc4nc5c(n4n3)C(c3ccccc3OC(F)F)NCC5O)cn2)CC1` (stereo not drawn) [Example 22, 2-(4-(5-(9-(2-(difluoromethoxy)phenyl)-6-hydroxy-6,7,8,9-tetrahydropyrido [4′,3′:4,5]imidazo[1,2-b]pyridazin-2-yl)pyrimidin-2-yl)piperazin-1-yl)acetic acid] the IC50 was 1000 to 10000 nM. “(+/−)-cis-9-(2-(difluoromethoxy)phenyl)-2-(4-morpholinophenyl)-6,7,8,9-tetrahydropyrido[4′,3′:4,5]imidazo[1,2-b]pyridazin-6-ol [Example 45]” was tested, and the IC50 was 1000 to 10000 nM. For `CC(C)(O)c1ccc(-c2ccc3nc4c(n3n2)C(c2ccccc2OC(F)F)OCC4(C)O)cc1` (stereo not drawn) [Example 59, 9-(2-(Difluoromethoxy)phenyl)-2-(4-(2-hydroxypropan-2-yl)phenyl)-6-methyl-6,9-dihydro-7H-pyrano[4′,3′:4,5]imidazo[1,2-b]pyridazin-6-ol], the IC50 was 1000 to 10000 nM. Compound “(+/−)-cis-9-(2-(difluoromethoxy)phenyl)-2-(4-(3-hydroxypentan-3-yl)phenyl)-6,7,8,9-tetrahydropyrido[4′,3′:4,5]imidazo[1,2-b]pyridazin-6-ol [Example 49]” has an IC50 of 1000 to 10000 nM. Work on `CC(C)(O)c1ncc(-c2ccc3nc4c(n3n2)[C@H](c2ccccc2OC(F)F)OC[C@@H]4O)cn1` (relative stereo) [Example 61, Cis-9-(2-(difluoromethoxy)phenyl)-2-(2-(2-hydroxypropan-2-yl)pyrimidin-5-yl)-6,9-dihydro-7H-pyrano[4′,3′:4,5]imidazo[1,2-b]pyridazin-6-ol] yielded an IC50 of 10000 to 25000 nM. `CCOC(C)c1ccc(-c2ccc3nc4c(n3n2)C(c2ccccc2OC(F)F)NCC4O)cc1` (racemic) [Example 35, (+/−)-cis-9-(2-(difluoromethoxy)phenyl)-2-(4-(1-ethoxyethyl)phenyl)-6,7,8,9-tetrahydropyrido[4′,3′:4,5]imidazo[1,2-b]pyridazin-6-ol] gave an IC50 of 1000 to 10000 nM. `Cn1cc(-c2ccc3nc4c(n3n2)C(c2ccccc2OC(F)F)OCC4)cn1` (stereo not drawn) [Example 64, 9-(2-(Difluoromethoxy)phenyl)-2-(1-methyl-1H-pyrazol-4-yl)-7,9-dihydro-6H-pyrano[4′,3′:4,5]imidazo[1,2-b]pyridazine] showed an IC50 of 1000 to 10000 nM. With `CCOc1ccc(-c2ccc3nc4c(n3n2)[C@@H](c2ccccc2OC(F)F)NC[C@H]4O)cc1` (racemic) [Example 31, (+/−)-cis-9-(2-(difluoromethoxy)phenyl)-2-(4-ethoxyphenyl)-6,7,8,9-tetrahydropyrido[4′,3′:4,5]imidazo [1,2-b]pyridazin-6-ol] the IC50 was 1000 to 10000 nM. Compound `CC(C)Oc1ccc(-c2ccc3nc4c(n3n2)[C@@H](c2ccccc2OC(F)F)NC[C@H]4O)cc1` (racemic) [Example 32, (+/−)-cis-9-(2-(difluoromethoxy)phenyl)-2-(4-isopropoxyphenyl)-6,7,8,9-tetrahydropyrido[4′,3′:4,5]imidazo[1,2-b]pyridazin-6-ol] has an IC50 of 1000 to 10000 nM. `CC(C)(C)COc1ccc(-c2ccc3nc4c(n3n2)[C@@H](c2ccccc2OC(F)F)NC[C@H]4O)cc1` (racemic) [Example 42, (+/−)-cis-9-(2-(difluoromethoxy)phenyl)-2-(4-(neopentyloxy)phenyl)-6,7,8,9-tetrahydropyrido[4′,3′:4,5]imidazo[1,2-b]pyridazin-6-ol] gave an IC50 of under 1000 nM. `CC(C)(O)c1ccc(-c2ccc3nc4c(n3n2)[C@H](c2ccccc2OC(F)F)NC[C@H]4O)cc1` [Example 5, (+/−)-Cis and trans-9-(2-(difluoromethoxy)phenyl)-2-(4-(2-hydroxypropan-2-yl)phenyl)-6,7,8,9-tetrahydropyrido[4′,3′:4,5]imidazo[1,2-b]pyridazin-6-ol] gave an IC50 of 1000 to 10000 nM. Compound “(+/−)-trans-9-(4-fluoro-2-methylphenyl)-2-(4-(2-hydroxypropan-2-yl)phenyl)-6,7,8,9-tetrahydropyrido[4′,3′:4,5]imidazo[1,2-b]pyridazin-6-ol [Example 44]” has an IC50 of under 1000 nM.
